These results are taken from US8466088B2, “Herbicidal compositions containing benzoylpyrazole compounds” (Ishihara Sangyo Kaisha, Ltd., priority 2007, dated 2013).

One test relates to velvetleaf. In words: Example 1: pot test, foliar treatment, visually observed growth inhibition of velvetleaf. Format: in vivo, Abutilon theophrasti MEDIC. The text has this:
(§1) When the herbicidal activity in a case where two active ingredients are combined, is larger than the simple sum of the respective herbicidal activities of the two active ingredients (the expected activity), it is called a synergistic effect. The activity expected by the combination of two active ingredients can be calculated as follows (Colby S. R., “Weed”, vol. 15, p. 20-22, 1967). E=α+β−(α×β+100) where
(§2) α: growth inhibition rate when treated with x (g/ha) of herbicide X,
(§3) β: growth inhibition rate when treated with y (g/ha) of herbicide Y,
(§4) E: growth inhibition rate expected when treated with x (g/ha) of herbicide X and y (g/ha) of herbicide Y.
(§5) That is, when the actual growth inhibition rate (measured value) is larger than the growth inhibition rate by the above calculation (calculated value), the activity by the combination can be regarded as showing a synergistic effect.
(§6) Upland field soil was put into a 1/1,000,000 hectare pot, and seeds of various plants were sown. When the respective plants reached predetermined leaf stage, herbicidal compositions in predetermined amounts were diluted with water in an amount corresponding to 300 L/ha and applied for foliar treatment by a small sprayer.
(§7) Further, in accordance with the above Colby's formula, the growth inhibition rate (calculated value) was calculated. In Tables, with respect to the compound A, Compound Nos. in Table 1 or 3 are described, and with respect to other herbicidal compounds, common names are described.

In a further test the test system is crabgrass. In words: Example 1: pot test, foliar treatment, visually observed growth inhibition of crabgrass. Format: in vivo.
Text: as §1, §2, §3, §4, §5, §6, §7

Where [1] appears, read: 3.2 to 4.3 leaf stage, 21st day after application, 125 g/ha.
Setting [2] is: Abutilon theophrasti, foliar, 2.5 to 3.3 leaf stage, 21st day after application, read-out: Growth inhibition rate (%) of velvetleaf, Measured value.
Setting [3] is: Abutilon theophrasti, foliar, 3.2 to 4.1 leaf stage, 21st day after application, read-out: Growth inhibition rate (%) of velvetleaf, Measured value.
Setting [4] is: Digitaria sanguinalis, foliar, read-out: Growth inhibition rate (%) of crabgrass, Measured value.

Each structure is given as a SMILES string. Like-named read-outs stand apart in the source and are kept apart here.

As to `CCOC(=O)COc1ccc(Cl)cc1Cl` [2,4-D-ethyl], the “Growth inhibition rate (%) of velvetleaf, Measured value” in the test with velvetleaf (2.4 to 3.2 leaf stage, 22nd day after application, 63 g/ha) came to 30%; in the test with velvetleaf (setting [1]), 50%. Also, the “Growth inhibition rate (%) of crabgrass, Measured value” in the test with crabgrass (setting [1]) is on record as 0%; in the test on crabgrass (3.6 to 4.5 leaf stage, 14th day after application, 100 g/ha) it was 0%; with crabgrass (3.6 to 4.5 leaf stage, 22nd day after application, 200 g/ha), 25%.

In the case of `CC(C)N1C(=O)c2ccccc2NS1(=O)=O` [Bentazone-sodium], the inhibition at 150 g/ha in the test with velvetleaf (Abutilon theophrasti, foliar, 2.0 to 2.5 leaf stage, 21st day after application, 150 g/ha, read-out: Growth inhibition rate (%) of velvetleaf, Measured value) stood at 95%. For the same compound, in the test with velvetleaf (Abutilon theophrasti, foliar, 3.0 to 4.0 leaf stage, 21st day after application, 100 g/ha, read-out: Growth inhibition rate (%) of velvetleaf, Measured value), the inhibition at 100 g/ha was determined as 0%. Besides, the inhibition at 200 g/ha with velvetleaf (Abutilon theophrasti, foliar, 3.0 to 4.0 leaf stage, 21st day after application, 200 g/ha, read-out: Growth inhibition rate (%) of velvetleaf, Measured value) amounted to 20%; with crabgrass (Digitaria sanguinalis, foliar, 3.2 to 4.1 leaf stage, 21st day after application, 200 g/ha, read-out: Growth inhibition rate (%) of crabgrass, Measured value), 0%; in the test on crabgrass (Digitaria sanguinalis, foliar, 4.1 to 5.3 leaf stage, 14th day after application, 200 g/ha, read-out: Growth inhibition rate (%) of crabgrass, Measured value), 0%.

Take `N#Cc1cc(Br)c(O)c(Br)c1` [Bromoxynil, bromoxynil, reference compound]: the inhibition at 62.5 g/ha with velvetleaf (Abutilon theophrasti, foliar, 2.4 to 3.2 leaf stage, on the 22nd day after application, foliar, active ingredient amount 62.5 g/ha, read-out: Growth inhibition rate (%) of velvetleaf, Measured value) amounted to 35%. Besides, the inhibition at 77 g/ha with velvetleaf (setting [2]) worked out at 30%; with velvetleaf (setting [3]), 0%; in the test on crabgrass (Digitaria sanguinalis, foliar, 4.0 to 5.0 leaf stage, 21st day after application, 77 g/ha, read-out: Growth inhibition rate (%) of crabgrass, Measured value) it was 0%. Also, the inhibition at 165 g/ha in the test on velvetleaf (setting [2]) turned out to be 40%; in the test on velvetleaf (setting [3]) it was 30%; in the test with velvetleaf (Abutilon theophrasti, foliar, 4.0 to 4.4 leaf stage, 22nd day after application, read-out: Growth inhibition rate (%) of velvetleaf, Measured value), 50%; in the test with crabgrass (Digitaria sanguinalis, foliar, 2.7 to 3.6 leaf stage, 21st day after application, read-out: Growth inhibition rate (%) of crabgrass, Measured value) it was 0%; with crabgrass (Digitaria sanguinalis, foliar, 4.0 to 5.0 leaf stage, 21st day after application, read-out: Growth inhibition rate (%) of crabgrass, Measured value) it was 0%.

On to `CCCCCCCC(=O)Oc1c(Br)cc(C#N)cc1Br` [Bromoxynil-octanoate], for which the inhibition at 63 g/ha in the test on velvetleaf (Abutilon theophrasti, foliar, 2.0 to 2.5 leaf stage, 21st day after application, 63 g/ha, read-out: Growth inhibition rate (%) of velvetleaf, Measured value) came to 25%; in the test with velvetleaf (Abutilon theophrasti, foliar, 3.3 to 4.2 leaf stage, 22nd day after application, 63 g/ha, read-out: Growth inhibition rate (%) of velvetleaf, Measured value), 45%; in the test on crabgrass (Digitaria sanguinalis, foliar, 3.5 to 4.0 leaf stage, 21st day after application, 63 g/ha, read-out: Growth inhibition rate (%) of crabgrass, Measured value) it was 0%. Also, the inhibition at 50 g/ha in the test on velvetleaf (Abutilon theophrasti, foliar, 3.0 to 3.8 leaf stage, 15th day after application, read-out: Growth inhibition rate (%) of velvetleaf, Measured value) was determined as 0%; with velvetleaf (Abutilon theophrasti, foliar, 3.2 to 5.0 leaf stage, 14th day after application, read-out: Growth inhibition rate (%) of velvetleaf, Measured value), 20%; in the test with velvetleaf (Abutilon theophrasti, foliar, 3.2 to 5.0 leaf stage, 21st day after application, read-out: Growth inhibition rate (%) of velvetleaf, Measured value) it was 10%; in the test with velvetleaf (Abutilon theophrasti, foliar, 3.5 to 4.3 leaf stage, 21st day after application, read-out: Growth inhibition rate (%) of velvetleaf, Measured value), 0%. For the same compound, the inhibition at 125 g/ha in the test with velvetleaf (Abutilon theophrasti, foliar, 3.3 to 4.2 leaf stage, 22nd day after application, 125 g/ha, read-out: Growth inhibition rate (%) of velvetleaf, Measured value) came out at 50%.

Regarding `CCOC(=O)C(Cl)Cc1cc(-n2nc(C)n(C(F)F)c2=O)c(F)cc1Cl` (stereo not shown) [Carfentrazone-ethyl], the inhibition at 5 g/ha was 98% with velvetleaf (Abutilon theophrasti, foliar, read-out: Growth inhibition rate (%) of velvetleaf, Measured value, 2.0 to 2.5 leaf stage, 21st day after application); 80% with velvetleaf (Abutilon theophrasti, foliar, read-out: Growth inhibition rate (%) of velvetleaf, Measured value, 3.3 to 4.3 leaf stage, 20th day after application); 0% in the test with crabgrass (setting [4]). The inhibition at 2.5 g/ha came to 65% in the test on velvetleaf (Abutilon theophrasti, foliar, read-out: Growth inhibition rate (%) of velvetleaf, Measured value, 3.2 to 4.3 leaf stage, 21st day after application, 2.5 g/ha) and 0% in the test with crabgrass (setting [4]).

On to `COCC(C)N(C(=O)CCl)c1c(C)csc1C` (stereo not shown) [Dimethenamid], for which the inhibition at 125 g/ha in the test on velvetleaf (Abutilon theophrasti, foliar, 2.0 to 2.5 leaf stage, 21st day after application, 125 g/ha, read-out: Growth inhibition rate (%) of velvetleaf, Measured value) turned out to be 0%.

Consider `COc1cc(OC)nc(NC(=O)NS(=O)(=O)c2cc(NC=O)ccc2C(=O)N(C)C)n1` [Foramsulfuron], for which the inhibition at 15 g/ha with velvetleaf (Abutilon theophrasti, foliar, 2.0 to 2.8 leaf stage, 21st day after application, 15 g/ha, read-out: Growth inhibition rate (%) of velvetleaf, Measured value) is 0%. Further, in the test on velvetleaf (Abutilon theophrasti, foliar, 2.0 to 2.8 leaf stage, 21st day after application, 30 g/ha, read-out: Growth inhibition rate (%) of velvetleaf, Measured value), the inhibition at 30 g/ha amounted to 25%.

Consider `CP(=O)(O)CCC(N)C(=O)O` (stereo not shown) [Glufosinate-ammonium], for which, in the test with velvetleaf (Abutilon theophrasti, foliar, read-out: Growth inhibition rate (%) of velvetleaf, Measured value, 3.3 to 4.3 leaf stage, 20th day after application, 100 g/ha), the inhibition at 100 g/ha was 0%. For the same compound, the inhibition at 200 g/ha in the test on velvetleaf (Abutilon theophrasti, foliar, read-out: Growth inhibition rate (%) of velvetleaf, Measured value, 3.3 to 4.3 leaf stage, 20th day after application, 200 g/ha) is 10%.

`N.O=C(O)CNCP(=O)(O)O` [Glyphosate-ammonium]: the “Growth inhibition rate (%) of velvetleaf, Measured value” with velvetleaf (2.6 to 3.3 leaf stage, 20th day after application, 63 g/ha) amounted to 0%; with velvetleaf (3.0 to 4.0 leaf stage, 21st day after application, 200 g/ha), 0%; in the test with velvetleaf (3.2 to 5.0 leaf stage, 14th day after application, 75 g/ha), 0%; in the test with velvetleaf (3.5 to 4.1 leaf stage, 14th day after application, 100 g/ha) it was 25%; in the test on velvetleaf (3.5 to 4.1 leaf stage, 14th day after application, 200 g/ha), 50%; in the test on velvetleaf (3.5 to 4.1 leaf stage, 20th day after application, 75 g/ha), 0%. The “Growth inhibition rate (%) of velvetleaf, Measured value” in the test with velvetleaf (3.5 to 4.1 leaf stage, 20th day after application, 150 g/ha) amounted to 0%; in the test on velvetleaf (3.5 to 4.3 leaf stage, 21st day after application, 75 g/ha), 0%.

As to `O=C(O)CNCP(=O)([O-])O.[K+]` [Glyphosate-potassium], the “Growth inhibition rate (%) of crabgrass, Measured value” in the test with crabgrass (3.3 to 4.2 leaf stage, 28th day after application, 75 g/ha) worked out at 0%.

`CSc1nnc(C(C)(C)C)c(=O)n1N` [Metribuzin]: the inhibition at 125 g/ha with crabgrass (Digitaria sanguinalis, foliar, 3.2 to 4.2 leaf stage, 21st day after application, 125 g/ha, read-out: Growth inhibition rate (%) of crabgrass, Measured value) is 15%. Moreover, the inhibition at 250 g/ha with crabgrass (Digitaria sanguinalis, foliar, 3.2 to 4.2 leaf stage, 21st day after application, 250 g/ha, read-out: Growth inhibition rate (%) of crabgrass, Measured value) came to 20%.

As to `CCSC(=O)Oc1c(C(=O)c2ccc(S(C)(=O)=O)c(C(=O)OC)c2C)cnn1C` [No. 1, 5-(ethylthio)carbonyloxy-1-methylpyrazol-4-yl 3-(methoxycarbonyl)-2-methyl-4-(methylsulfonyl)phenyl ketone], in the test with crabgrass (Digitaria sanguinalis, foliar, 3.2 to 4.3 leaf stage, on the 22nd day after application, foliar, active ingredient amount 15 g/ha, read-out: Growth inhibition rate (%) of crabgrass, Measured value), the inhibition at 15 g/ha came to 65%.

For the compound `Cn1nc(C(F)(F)F)c(CS(=O)(=O)C2=NOC(C)(C)C2)c1OC(F)F` [Pyroxasulfone], the inhibition at 50 g/ha with velvetleaf (Abutilon theophrasti, foliar, 3.5 to 4.0 leaf stage, 14th day after application, read-out: Growth inhibition rate (%) of velvetleaf, Measured value) was 40%. Besides, the inhibition at 100 g/ha with velvetleaf (Abutilon theophrasti, foliar, 3.5 to 4.0 leaf stage, 14th day after application, 100 g/ha, read-out: Growth inhibition rate (%) of velvetleaf, Measured value) is 50%.

For the compound `CCS(=O)(=O)c1cccnc1S(=O)(=O)NC(=O)Nc1nc(OC)cc(OC)n1` [Rimsulfuron], in the test with velvetleaf (Abutilon theophrasti, foliar, 3.0 to 4.0 leaf stage, 21st day after application, 10 g/ha, read-out: Growth inhibition rate (%) of velvetleaf, Measured value), the inhibition at 10 g/ha was determined as 75%. For the same compound, in the test on velvetleaf (Abutilon theophrasti, foliar, 3.0 to 4.0 leaf stage, 21st day after application, 20 g/ha, read-out: Growth inhibition rate (%) of velvetleaf, Measured value), the inhibition at 20 g/ha was 95%. Further, the inhibition at 7 g/ha in the test on velvetleaf (Abutilon theophrasti, foliar, 3.2 to 4.3 leaf stage, 21st day after application, 7 g/ha, read-out: Growth inhibition rate (%) of velvetleaf, Measured value) is 50%.

As to `COc1nc(NC(=O)NS(=O)(=O)c2ccccc2C(F)(F)F)nc(C(F)(F)F)n1` [Tritosulfuron], in the test on crabgrass (3.2 to 4.2 leaf stage, 21st day after application, 15 g/ha), the “Growth inhibition rate (%) of crabgrass, Measured value” was 0%.

The inhibition is the share of the control response that was lost under treatment.
